Results published in patent publication US6821965B1, “Amidobenzamide derivatives which are useful as cytokine inhibitors” (AsterZeneca AB, priority 1998, dated 2004).

Legend:
p38α = molecular target: T1, p38α (Homo sapiens, UniProt Q16539); experiment: In vitro enzyme assay, p38α kinase; assay type: biochemical; details: approximate value; read-out: IC50 against p38α
T1 construct: c-myc (N); 6His (N); made in house; host or cells: E. coli (PET vectors)
Description: The ability of compounds of the invention to inhibit the enzyme p38 kinase was assessed. Activity of test compounds against each of the p38α and p38β isoforms of the enzyme was determined.
Human recombinant MKK6 (GenBank Accesion Number G1209672) was isolated from Image clone 45578 (Genomics 1996, 33, 151) and utilised to produce protein in the form of a GST fusion protein in a pGEX vector using analogous procedures to those disclosed by J. Han el al., Journal of Biological Chemistry, 1996, 271, 2886-2891. p38α (GenBank Accession Number G529039) and p38β (GenBank Accession Number G1469305) were isolated by PCR amplification of human lymphoblastoid cDNA (GenBank Accession Number GM1416) and human foetal brain cDNA [synthesised from mRNA (Clontech, catalogue no. 6525-1) using a Gibco superscript cDNA synthesis kit] respectively using oligonucleotides designed for the 5′ and 3′ ends of the human p38α and p38β genes using analogous procedures to those described by J. Han et al., Biochimica et Biophysica Acta, 1995, 1265, 224-227 and Y. Jiang et al., Journal of Biological Chemistry 1996, 271, 17920-17926.
Both p38 protein isoforms were expressed in e coli in PET vectors. Human recombinant p38α and p38β isoforms were produced as 5′ c-myc, 6His tagged proteins. Both MKK6 and the p38 proteins were purified using standard protocols: the GST MKK6 was purified using a glutathione sepharose column and the p38 proteins were purified using nickel chelate columns.
The p38 enzymes were activated prior to use by, incubation with MKK6 for 3 hours at 30° C. The unactivated coli-expressed MKK6 retained sufficient activity to fully activate both isoforms of p38. The activation incubate comprised p38α (10 μl of 10 mg/ml) or p38β (10 μl of 5 mg/ml) together with MKK6 (10 μl of 1 mg/ml), ‘Kinase buffer’ [100 μl; pH 7.4 buffer comprising Tris (50 mM), EGTA (0.1 mM), sodium orthovanadate (0.1 mM) and β-mercaptoethanol (0.1%)] and MgATP (30 μl of 50 mM Mg(OCOCH3)2 and 0.5 mM ATP). This produced enough activated p38 enzyme for 3 Microtiter plates.
Test compounds were solubilised in DMSO and 10 μl of a 1:10 diluted sample in ‘Kinase Buffer’ was added to a well in a Microtiter plate. For single dose testing, the compounds were tested at 10 μM. ‘Kinase Assay Mix’ [30 μl; comprising Myelin Basic Protein (Gibco BRL cat no. 1322B-θ10; 1 ml of a 3.33 mg/ml solution in water), activated p38 enzyme (50 μl) and ‘Kinase Buffer’ (2 ml)] was then added followed by ‘Labelled ATP’ [10 μl; comprising 50 μM ATP, 0.1 μCi^33P ATP (Amersham International cat. no. BF 1000) and 50 mM Mg(OCOCH3)21]. The plates were incubated at room temperature with gentle agitation. Plates containing p38α were incubated for 90 min and plates containing p38β were incubated for 45 min. Incubation was stopped by the addition of 50 μl of 20% trichloroacetic acid (TCA). The precipitated protein was phosphorylated by p38 kinase and test compounds were assessed for their ability to inhibit this phosphorylation. The plates were filtered using a Canberra Packard Unifilter and washed with 2% TCA, dried overnight and counted on a Top Count scintillation counter.
Test compounds were tested initially at a single dose and active compounds were retested to allow IC50 values to be determined.

[1] = tested on: TNFα production in human whole blood; experiment: Human Whole Blood (HWB) test: LPS-stimulated TNFα production; assay type: cell-based; details: approximate value
Description: The ability of the compounds of this invention to inhibit TNFα production was also assessed in a human whole blood assay. Human whole blood secretes TNFα when stimulated with LPS. This property of blood forms the basis of an assay which is used as a secondary test for compounds which profile as active in the PBMC test.
Heparinised (10 units/ml) human blood was obtained from volunteers. 160 μl whole blood were added to 96 well round-bottom plates (Corning 25850). Compounds were solubilised and serially diluted in RPMI 1640 medium (Gibco) supplemented with 50 units/ml penicillin, 50 μg/ml streptomycin and 2 mM glutamine, as detailed above. 20 μl of each test concentration was added to appropriate wells (triplicate cultures). 20 μl of RPMI 1640 medium supplemented with antibiotics and glutamine was added to control wells. Plates were incubated for 30 minutes at 37° C. (humidified incubator), prior to addition of 20 μl LPS (final concentration 10 μg/ml). RPMI 1640 medium was added to control wells. Six “LPS alone” and four “medium alone” controls were included on each plate. A known TNFαsynthesis/secretion inhibitor was included in each test. Plates were incubated for 6 hours at 37° C. (humidified incubator). Plates were centrifuged (2000 rpm for 10 minutes) and 100 μl plasma removed and stored at −70° C. (Corning 25850 plates). TNFα levels were measured by ELISA (see WO92/10190 and Current Protocols in Molecular Biology, vol 2 by Frederick M. Ausbel et al., John Wiley and Sons Inc.). The paired antibodies that were used in the ELIZA were obtained from R&D Systems (catalogue nos. MAB610 anti-human TNFα coating antibody, BAF210 biotinylated anti-human TNFα detect antibody).

[2] = tested on: TNFα production by human peripheral blood mononuclear cells; experiment: PBMC test: LPS-stimulated TNFα production; assay type: cell-based; details: approximate value
Description: The ability of compounds of this invention to inhibit TNFα production was assessed by using human peripheral blood mononuclear cells which synthesise and secrete TNFα when stimulated with lipopolysaccharide.
Peripheral blood mononuclear cells (PBMC) were isolated from heparinised (10 units/ml heparin) human blood by density centrifugation (Lymphoprep™; Nycomed). Mononuclear cells were resuspended in culture medium [RPMI 1640 medium (Gibco) supplemented with 50 units/ml penicillin, 50 μg/ml streptomycin, 2 mM glutamine and 1% heat-inactivated human AB serum (Sigma H-1513)]. Compounds were solubilised in DMSO at a concentration of 50 mM, diluted 1:100 in culture medium and subsequently serial dilutions were made in culture medium containing 1% DMSO. PBMCs (2.4×10^5 cells in 160 μl culture medium) were incubated with 20 μl of varying concentrations of test compound (triplicate cultures) or 20 μl culture medium containing 1% DMSO (control wells) for 30 minutes at 37° C. in a humidified (5% CO2/95% air) incubator (Falcon 3072; 96 well flat-bottom tissue culture plates). 20 μl lipopolysaccharide [LPS E. Coli 0111:B4 (Sigma L-4130), final concentration 10 μg/ml] solubilised in culture medium was added to appropriate wells. 20 μl culture medium was added to “medium alone” control wells. Six “LPS alone” and four “medium alone” controls were included on each 96 well plate. Varying concentrations of a known TNFα inhibitor were included in each test, i.e. an inhibitor of the PDE Type IV enzyme (for example see Semmler, J. Wachtel. H and Endres, S., Int. J. Immunopharmac. (1993), 15(3), 409-413) or an inhibitor of proTNFα convertase (for example, see McGeehan, G. M. el al. Nature (1994) 370, 558-561). Plates were incubated for 7 hours at 37° C. (humidified incubator) after which 100 μl of the supernatant was removed from each well and stored at −70° C. (96 well round-bottom plates; Corning 25850). TNFα levels were determined in each sample using a human TNFα ELISA (see WO92/10190 and Current Protocols in Molecular Biology, vol 2 by Frederick M. Ausbel et al., John Wiley and Sons Inc.). […]

T1 sequence (Q16539 whole entry): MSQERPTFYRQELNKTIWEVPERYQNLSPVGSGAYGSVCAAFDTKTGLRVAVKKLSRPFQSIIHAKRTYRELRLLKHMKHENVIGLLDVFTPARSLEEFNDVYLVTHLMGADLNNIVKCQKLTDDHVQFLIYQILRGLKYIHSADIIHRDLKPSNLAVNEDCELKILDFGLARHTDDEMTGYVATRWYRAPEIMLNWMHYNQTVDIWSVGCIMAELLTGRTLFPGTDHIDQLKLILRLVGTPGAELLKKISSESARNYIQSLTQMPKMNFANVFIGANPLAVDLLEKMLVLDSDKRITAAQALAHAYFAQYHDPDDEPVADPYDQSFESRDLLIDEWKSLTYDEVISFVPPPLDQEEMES

| IC50 (p38α) | IC50 [1] | IC50 [2] | SMILES |
| --- | --- | --- | --- |
| ~50 nM | ~5000 nM | – | Cc1ccc(C(=O)Nc2cccc(N3CCOCC3)c2)cc1NC(=O)c1cccc(CN2CCN(C)CC2)c1 [Example 30, 4-methyl-3-[3-(4-methylpiperazin-1-ylmethyl)benzamido]-N-(3-morpholinophenyl)benzamide] |
| ~300 nM | ~15000 nM | – | CCN(CC)Cc1ccc(C(=O)Nc2cc(C(=O)Nc3cccc(N4CCOCC4)c3)ccc2C)cc1 [Example 31(4), 4-methyl-3-(4-diethylaminomethylbenzamido)-N-(3-morpholinophenyl)benzamide] |

The next lines start with the molecule.

| SMILES | IC50 (p38α) | IC50 [1] | IC50 [2] |
| --- | --- | --- | --- |
| Cc1ccc(C(=O)Nc2cccc(N3CCOCC3)c2)cc1NC(=O)c1cccc(OC2CCNCC2)c1 [Example 20, 4-methyl-N-(3-morpholinophenyl)-3-(3-piperidin-4-yloxybenzamido)benzamide] | ~50 nM | ~2000 nM | – |
| Cc1ccc(C(=O)Nc2cccc(N(C)C)c2)cc1NC(=O)c1ccc2ncccc2c1 [Example 12, N-(3-dimethylaminophenyl)-4-methyl-3-(6-quinolylcarbonylamino)benzamide] | ~700 nM | – | ~22000 nM |
| CCCc1ccc(C(=O)Nc2cc(C(=O)Nc3cccc(N(C)C)c3)ccc2C)cc1 [Example 3, Compound No. 1, N-(3-dimethylaminophenyl)-4-methyl-3-(4-propylbenzamido)benzamide] | ~300 nM | – | ~6000 nM |
| COc1ccc(C(=O)Nc2cc(C(=O)NCCC3CCCCC3)ccc2C)cc1OC [Example 11, N-(2-cyclohexylethyl)-3-(3,4-dimethoxybenzamido)-4-methylbenzamide] | ~1000 nM | – | ~8000 nM |
